Read-outs that look alike come from different tables or passages of the source.
Experiments:
[1] = Hepatocyte stability assay, rat; format: in vitro ADME; conditions: SD, hepatocytes
Description: (§1) Example 7. In Vitro Metabolic Stability of Isoxazoline Compounds in cd-1 Mouse, sd Rat, Beagle Dog, Cynomolgus Monkey and Human Cryopreserved Hepatocytes
(§2) Isoxazoline compounds (at 1 μM) were incubated with cryopreserved hepatocytes (0.5×10^6 cells per mL) in duplicates (n=2) at 37° C. using 96-well plate format.
(§3) Time points were 0, 15, 30, 60 and 90 minutes in separate plates and medium control samples without cells at 0 and 90 minutes were also incubated. At each time point the reaction was stopped by adding organic solution containing internal standard (IS).
(§4) Positive controls 7-ethoxycoumarin and 7-hydroxycoumarin were included in parallel.
(§5) The samples were analyzed by LC-MS/MS. Disappearance of the test compound was assessed based on peak area ratios of analyte/IS (no standard curve).
(§6) Intrinsic clearance and t½ values were then calculated.

[2] = Hepatocyte stability assay, dog; format: in vitro ADME; conditions: Beagle, hepatocytes
Description: as §1, §2, §3, §4, §5, §6

[3] = Plasma protein binding (equilibrium dialysis), mouse; format: in vitro ADME; conditions: 2 μM
Description: Frozen plasma (EDTA-K2 as anticoagulant) pooled from multiple individuals of various species was used as a test matrix. The plasma was purchased from commercial vendors or prepared in house from animals. Warfarin was used as a positive control.
Isoxazoline compounds were spiked into the blank matrix at the final concentration of 2 μM.
A 150 μL aliquot of matrix sample was added to one side of the chamber in a 96-well equilibrium dialyzer plate (HTD dialysis) and an equal volume of dialysis buffer was added to the other side of the chamber. An aliquot of matrix sample was harvested before the incubation and used as T0 samples for recovery calculation. Triplicate incubations were performed.
The dialyzer plate was placed in a humidified incubator and rotated slowly for 4 hours at 37° C. After incubation, samples were taken from the matrix side as well as the buffer side. The plasma sample was matched with equal volume of blank buffer; and buffer samples were matched with equal volume of blank plasma. The matrix-matched samples were quenched with a stop solution containing internal standard.
The samples were analyzed by LC-MS/MS.
Then, % bound fraction at 4 hours (% bound=1−% unbound) and % recovery in incubates at 4 hours were calculated.
The stability of compounds in mouse (ms), rat (r), dog (d), cynomolgus monkey (cy), and human (hu) plasma is shown in Table 10 by the percentages of compounds remaining at two hours.

[4] = target: T1, CYP 2C9 (Homo sapiens, UniProt P11712); assay: Reversible CYP inhibition in human liver microsomes, CYP 2C9; format: in vitro ADME; conditions: diclofenac, read-out: Cyp microsome IC50, 2C9
T1 construct: individual CYPs in a pool of human liver microsomes; from tissue; host or cells: pooled human liver microsomes
T1 sequence (P11712 whole entry): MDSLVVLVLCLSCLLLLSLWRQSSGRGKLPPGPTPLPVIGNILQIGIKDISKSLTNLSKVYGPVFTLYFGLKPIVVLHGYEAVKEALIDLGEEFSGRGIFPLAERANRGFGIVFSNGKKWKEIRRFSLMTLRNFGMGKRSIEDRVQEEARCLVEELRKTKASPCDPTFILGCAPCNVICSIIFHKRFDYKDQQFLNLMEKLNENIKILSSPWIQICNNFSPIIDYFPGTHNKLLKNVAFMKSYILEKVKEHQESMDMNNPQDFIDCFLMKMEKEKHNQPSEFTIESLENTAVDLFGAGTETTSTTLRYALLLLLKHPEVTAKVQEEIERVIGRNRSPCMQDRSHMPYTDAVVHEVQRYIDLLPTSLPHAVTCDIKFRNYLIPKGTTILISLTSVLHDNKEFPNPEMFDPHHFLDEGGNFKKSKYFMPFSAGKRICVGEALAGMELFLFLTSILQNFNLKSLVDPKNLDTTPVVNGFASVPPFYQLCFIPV
Description: (§7) Reversible inhibition of cytochrome P450s (CYPs) in human liver microsomes was tested using prototypical, isoform-selective activity assays for individual CYPs in a pool of human liver microsomes (i.e., testosterone for CYP 3A4, phenacetin for CYP 1A2, bufuralol for CYP 2D6, S-mephenytoin for CYP 2C19, and diclofenac for CYP 2C9). The assay provides 8-point IC50 determinations in the range of 0.010 to 50 μM drug concentrations for major isoforms of CYP450.

[5] = target: T2, CYP 2C19 (Homo sapiens, UniProt P33261); assay: Reversible CYP inhibition in human liver microsomes, CYP 2C19; format: in vitro ADME; conditions: S-mephenytoin, read-out: Cyp microsome IC50, 2C19
T2 construct: individual CYPs in a pool of human liver microsomes; from tissue; host or cells: pooled human liver microsomes
T2 sequence (P33261 whole entry): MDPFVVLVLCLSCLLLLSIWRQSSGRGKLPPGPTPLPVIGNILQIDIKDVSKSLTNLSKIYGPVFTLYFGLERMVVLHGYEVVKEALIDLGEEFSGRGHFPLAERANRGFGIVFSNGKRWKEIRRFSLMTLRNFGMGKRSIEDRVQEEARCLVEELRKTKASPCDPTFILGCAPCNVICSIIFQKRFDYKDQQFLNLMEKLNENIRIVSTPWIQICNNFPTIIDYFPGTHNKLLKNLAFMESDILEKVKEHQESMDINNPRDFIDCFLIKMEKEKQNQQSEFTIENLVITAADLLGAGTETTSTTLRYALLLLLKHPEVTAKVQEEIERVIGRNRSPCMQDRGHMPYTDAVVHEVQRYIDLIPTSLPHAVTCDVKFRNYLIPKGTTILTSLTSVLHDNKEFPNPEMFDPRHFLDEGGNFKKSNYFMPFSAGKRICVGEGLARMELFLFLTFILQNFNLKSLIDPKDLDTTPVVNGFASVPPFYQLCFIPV
Description: as §7

[6] = Hepatocyte stability assay, human; format: in vitro ADME; conditions: hepatocytes
Description: as §1, §2, §3, §4, §5, §6

[7] = target: hERG channels (Homo sapiens, UniProt Q12809); assay: hERG channel manual patch clamp assay (CHO-K1 cells); format: cell-based
Chain of hERG channels (Q12809 whole entry): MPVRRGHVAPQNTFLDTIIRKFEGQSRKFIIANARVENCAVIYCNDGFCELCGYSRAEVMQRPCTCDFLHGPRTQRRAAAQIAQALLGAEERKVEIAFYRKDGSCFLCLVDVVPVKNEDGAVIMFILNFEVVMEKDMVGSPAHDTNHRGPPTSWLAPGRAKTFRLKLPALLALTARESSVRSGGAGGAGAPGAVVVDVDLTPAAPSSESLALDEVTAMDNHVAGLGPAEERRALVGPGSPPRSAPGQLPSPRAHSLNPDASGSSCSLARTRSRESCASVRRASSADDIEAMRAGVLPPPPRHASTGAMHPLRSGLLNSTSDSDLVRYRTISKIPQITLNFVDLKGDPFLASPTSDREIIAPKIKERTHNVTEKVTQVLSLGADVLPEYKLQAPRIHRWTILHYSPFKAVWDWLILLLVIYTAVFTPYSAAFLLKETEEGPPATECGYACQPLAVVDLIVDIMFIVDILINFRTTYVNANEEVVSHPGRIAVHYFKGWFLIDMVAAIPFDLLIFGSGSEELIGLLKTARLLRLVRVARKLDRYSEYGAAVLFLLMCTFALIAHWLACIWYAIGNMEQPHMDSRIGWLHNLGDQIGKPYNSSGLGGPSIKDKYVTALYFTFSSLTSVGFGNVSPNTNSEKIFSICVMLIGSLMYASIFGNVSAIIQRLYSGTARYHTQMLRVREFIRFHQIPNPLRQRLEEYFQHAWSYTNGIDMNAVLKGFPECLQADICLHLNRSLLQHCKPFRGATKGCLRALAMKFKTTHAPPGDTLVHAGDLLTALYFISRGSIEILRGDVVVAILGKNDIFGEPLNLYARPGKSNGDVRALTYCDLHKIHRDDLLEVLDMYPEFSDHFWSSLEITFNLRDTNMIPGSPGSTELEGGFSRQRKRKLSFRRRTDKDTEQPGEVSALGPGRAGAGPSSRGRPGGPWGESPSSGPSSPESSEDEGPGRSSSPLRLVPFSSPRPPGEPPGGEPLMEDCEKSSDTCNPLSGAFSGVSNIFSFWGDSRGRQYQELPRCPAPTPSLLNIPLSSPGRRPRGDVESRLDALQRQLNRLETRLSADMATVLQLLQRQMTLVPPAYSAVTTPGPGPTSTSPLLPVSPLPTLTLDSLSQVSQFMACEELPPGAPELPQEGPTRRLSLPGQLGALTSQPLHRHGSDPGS
Description: Cells: Stable CHO-K1 cells expressing hERG channels (from AVIVA Biosciences) were used in the assay.
Patch Clamp recording: The recordings were performed on conventional patch clamp (Axon Multiclamp 700B, Digidata 1440, pCLAMP 10, Molecular Devices Corporation or HEKA EPC10/Patchmaster system, HEKA Elektronik Corporation) at room temperature, using the whole-cell patch clamp techniques. The composition of external solution was (mM): HEPES 10, NaCl 145, KCl 4, CaCl2 2, MgCl2 1, Glucose 10, pH to 7.4 with 1N NaOH, osmolarity to 290-300 mOsm. Filtered and kept at 4° C. The composition of internal solution was (mM): KOH 31.25, KCl 120, CaCl2 5.374, MgCl2 1.75, EGTA 10, HEPES 10, Na2-ATP 4, pH to 7.2 with 1N KOH, osmolarity to 280-290 mOsm. Filtered and kept at −20° C.
For conventional patch clamp, 35 mm culture dishes or recording chambers containing CHO-hERG cells were placed on the stage of an inverted/upright microscope and continuously perfused with external solutions from a perfusion system (RSC-160 Rapid solution Changer, BioLogic or OctaFlow I, ALA Scientific Instruments Inc).
Test compounds were dissolved in 100% DMSO to make stock solutions for each test concentration, and then diluted into external solutions to achieve final concentration for testing. Final DMSO concentration was not more than 0.3%.
Voltage command protocol: From the holding potential of −80 mV, the voltage was first stepped to 60 mV for 850 ms to open hERG channels. Then the voltage was stepped back down to −50 mV for 1275 ms, causing a “rebound” or tail current, which was measured and collected for data analysis. Finally, the voltage was stepped back to the holding potential (−80 mV). This voltage command protocol was repeated every 15000 msec. This command protocol was performed continuously during the test (vehicle control, test compounds).
Compound effect (% inhibition) was determined by difference in current amplitude before and after the application of test compounds. IC50 values were determined from concentration-response curves that were obtained with Hill fitting.

[8] = Solubility at pH 6.8; format: physicochemical; conditions: pH 6.8, aqueous buffer
[9] = target: T3, CYP 2D6 (Homo sapiens, UniProt P10635); assay: Reversible CYP inhibition in human liver microsomes, CYP 2D6; format: in vitro ADME; conditions: bufuralol, read-out: Cyp microsome IC50, 2D6
T3 construct: individual CYPs in a pool of human liver microsomes; from tissue; host or cells: pooled human liver microsomes
T3 sequence (P10635 whole entry): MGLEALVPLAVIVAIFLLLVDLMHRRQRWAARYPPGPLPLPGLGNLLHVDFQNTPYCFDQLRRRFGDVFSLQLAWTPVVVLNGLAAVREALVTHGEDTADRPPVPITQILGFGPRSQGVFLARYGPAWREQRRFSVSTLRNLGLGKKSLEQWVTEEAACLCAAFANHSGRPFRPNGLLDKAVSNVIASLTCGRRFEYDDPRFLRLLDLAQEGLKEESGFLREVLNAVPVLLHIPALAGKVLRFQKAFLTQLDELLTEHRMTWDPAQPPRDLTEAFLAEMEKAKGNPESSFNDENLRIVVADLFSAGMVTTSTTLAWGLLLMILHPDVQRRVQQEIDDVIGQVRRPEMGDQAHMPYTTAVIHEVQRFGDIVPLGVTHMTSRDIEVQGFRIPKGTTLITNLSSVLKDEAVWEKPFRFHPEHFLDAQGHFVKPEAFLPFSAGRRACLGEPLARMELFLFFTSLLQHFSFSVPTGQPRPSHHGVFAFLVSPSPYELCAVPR
Description: as §7

[10] = Hepatocyte stability assay, mouse; format: in vitro ADME
Description: as §1, §2, §3, §4, §5, §6

[11] = rat (r), 1 μM, read-out: Hepatocyte stability (t½)
[12] = dog (d), 1 μM, read-out: Hepatocyte stability (t½)
[13] = human (hu), 1 μM, read-out: Hepatocyte stability (t½)
[14] = CD-1, hepatocytes, mouse (ms), 1 μM, read-out: Hepatocyte stability (t½)

SMILES	half-life at 1 μM [1, 11] [h]	half-life at 1 μM [2, 12] [h]	Plasma protein % binding ([3]; mouse (ms), 4 hours)	IC50 [4] [µM]	IC50 [5] [µM]	half-life at 1 μM [6, 13] [h]	hERG inhibition (manual patch) ([7]; at 5 uM)	solubility ([8]; read-out: Solubility (pH 6.8)) [µM]	IC50 [9] [µM]	half-life at 1 μM [10, 14] [h]	IC50 [7] [µM]	half-life at 1 μM ([1]; rat) [h]	half-life at 1 μM ([2]; dog) [h]	Plasma protein % binding ([3]; mouse, 4 h)	half-life at 1 μM ([6]; human) [h]	solubility [8] [µM]	half-life at 1 μM ([10]; CD-1, mouse, hepatocytes) [h]
O=C(CNC(=O)c1ccc(C2=NO[C@](c3cc(Cl)cc(C(F)(F)F)c3)(C(F)(F)F)C2)c2ccccc12)NCC(F)(F)F (racemic) [Afoxolaner, afoxolaner]	> 3.62	> 3.62	97.8 (ms), %	2.9	3.1	> 3.62	0.9% ± 2.5%	< 1	> 50	> 3.62							
O=C(CNC(=O)c1ccc(C2=NO[C@@](c3cc(Cl)cc(C(F)(F)F)c3)(C(F)(F)F)C2)c2ccccc12)NCC(F)(F)F [(S)-afoxolaner]	1	0.533	>99.9 (ms, r, hu), %	4.2	1.1	1.1		< 1	19	1.07	> 30						
O=C(CNC(=O)c1ccc(C2=NO[C@@](c3cc(Cl)cc(Cl)c3)(C(F)(F)F)C2)c2ccccc12)NCC(F)(F)F [(S)-4-(5-(3,5-dichlorophenyl)-5-(trifluoromethyl)-4,5-dihydroisoxazol-3-yl)-N-(2-oxo-2-((2,2,2-trifluoroethyl)amino)ethyl)-1-naphthamide]				1.9	0.6				17.2		19.9	1.28	0.683	>99.9% (ms, r, d, hu)	1.05	< 1	0.983

Reference: US20200061026A1, “METHODS AND COMPOSITIONS FOR PREVENTING VECTOR-BORNE DISEASE TRANSMISSION” (The Scripps Research Institute, priority 2016, published 2020)
